Measurements: article PMC10892984, “Novel Antineoplastic Inducers of Mitochondrial Apoptosis in Human Cancer Cells” (Molecules, 2024)

Key:
RPMI-8226 = settings: for TGI: RPMI-8226, leukemia, mutant p53, 48 h
HT29 = settings: for TGI: HT29, colon cancer, mutant p53, 48 h
SNB-75 = settings: for TGI: SNB-75, CNS cancer (brain tumor), mutant p53, 48 h
MDA-MB-435 = settings: for TGI: MDA-MB-435, melanoma, mutant p53, 48 h
SK-MEL-2 = settings: for TGI: SK-MEL-2, melanoma, mutant p53, 48 h
UACC-257 = settings: for TGI: UACC-257, melanoma, wild-type p53, 48 h
SN12C = settings: for TGI: renal cancer, mutant p53, 48 h
PC-3 cells = assay: Cytochrome c assay (mitochondrial and cytosolic), ELISA; type: cell-based, human; settings: for toxicity for the cell line: 50 µM and 75 µM, 48 h post-treatment
Experimental: (§1) Cell numbers of 2 × 10^6 PC-3 and DU-145 cells were seeded into a […]. […] The protein content for each fraction was calculated to determine the mass content of cytochrome c in each fraction (pg cytochrome c/mg total protein). The mass content of cytochrome c (pg cytochrome c/mg total protein) was normalized towards the corresponding blank DMSO control and is given in percent (%) of blank DMSO control.

DU-145 cells = assay: as above; type: cell-based, human; settings: for toxicity for the cell line: 50 µM and 75 µM, 48 h post-treatment
Experimental: as §1

TK-10 = settings: for TGI: TK-10, renal cancer, mutant p53, 48 h
HCT-15 = settings: for TGI: HCT-15, colon cancer, mutant p53, 48 h
MDA-MB-468 = settings: for TGI: MDA-MB-468, breast cancer, mutant p53, 48 h
NCI-H522 = settings: for TGI: NCI-H522, non-small-cell lung cancer, mutant p53, 48 h
OVCAR-8 = settings: for TGI: OVCAR-8, ovarian cancer, mutant p53, 48 h
SF-268 = settings: for TGI: SF-268, CNS cancer (brain tumor), mutant p53, 48 h
MCF7 = settings: for TGI: MCF7, breast cancer, wild-type p53, 48 h
HOP-62 = settings: for TGI: HOP-62, non-small-cell lung cancer, mutant p53, 48 h
IGROV1 = settings: for TGI: IGROV1, ovarian cancer, mutant p53, 48 h
UACC-62 = settings: for TGI: UACC-62, melanoma, wild-type p53, 48 h
CCRF-CEM = settings: for TGI: leukemia, mutant p53, 48 h
MOLT-4 = settings: for TGI: MOLT-4, leukemia, mutant p53, 48 h
786-0 = settings: for TGI: 786-0, renal cancer, mutant p53, 48 h
LOX IMVI = settings: for TGI: melanoma, wild-type p53, 48 h
NCI-H23 = settings: for TGI: NCI-H23, non-small-cell lung cancer, mutant p53, 48 h
MALME-3M = settings: 48 h; for TGI: MALME-3M, melanoma, wild-type p53
SF-295 = settings: for TGI: SF-295, CNS cancer (brain tumor), mutant p53, 48 h
[1] = 48 h, tested 500 nM, 1 µM, 5 µM, 25 µM
[2] = Homo sapiens, 48 h, read-out: LC50

COc1cc2c(c(OC)c1OC)-c1ccc(NNC(=S)N(Cc3cccc(C[N+](Cc4cccc(CNC56CC7CC(CC(C7)C5)C6)c4)(Cc4cccc(CNC56CC7CC(CC(C7)C5)C6)c4)Cc4cccc(CN(C(=S)NNc5ccc6c(cc5=O)C(NC(C)=O)CCc5cc(OC)c(OC)c(OC)c5-6)C56CC7CC(CC(C7)C5)C6)c4)c3)C34CC5CC(CC(C5)C3)C4)c(=O)cc1C(NC(C)=O)CC2 [Compound 3, [(bis{3-[(tricyclo[3.3.1.1^3,7]decan-1-ylamino)methyl]benzyl}ammonio)bis(methanediylbenzene-3,1-diylmethanediyl)]di-2-[(aS,7S)-7-(acetylamino)-1,2,3-trimethoxy-9-oxo-5,6,7,9-tetrahydrobenzo[a]heptalen-10-yl]-N-(tricyclo[3.3.1.1^3,7]decan-1-yl)hydrazinecarbothioamide chloride pentahydrate]
TGI (RPMI-8226): 1.76 µM | TGI (HT29): 2.81 µM | TGI (SNB-75): 6.68 µM | TGI (MDA-MB-435): 3.50 µM | TGI (SK-MEL-2): 2.76 µM | TGI (UACC-257): 10.3 µM | TGI (SN12C): 6.90 µM | toxicity for the cell line (PC-3 cells; 25 µM): highly toxic | cell death with depletion of cytosolic cytochrome c (PC-3 cells; 25.0 µM, 48 h): induced complete cell death | concentration at which cytochrome c translocation from mitochondria into the cytosol was readily induced (PC-3 cells; [1]): 5.0 µM | toxicity for the cell line (DU-145 cells; 25 µM): highly toxic | concentration at which cytochrome c translocation from mitochondria into the cytosol was readily induced (DU-145 cells; [1]): 25.0 µM | TGI (TK-10): 8.35 µM | TGI (HCT-15): 5.96 µM | TGI (MDA-MB-468): 1.75 µM | TGI (NCI-H522): 1.88 µM | TGI (OVCAR-8): 7.49 µM | TGI (SF-268): 6.54 µM | TGI (MCF7): 3.44 µM | TGI (HOP-62): 7.43 µM | TGI (IGROV1): 5.95 µM | TGI (UACC-62): 6.38 µM | TGI (CCRF-CEM): 2.47 µM | TGI (MOLT-4): 1.93 µM | TGI (786-0): 5.28 µM | TGI (LOX IMVI): 2.86 µM | TGI (NCI-H23): 5.33 µM | TGI (MALME-3M): 3.04 µM | TGI (SF-295): 5.92 µM

COc1cc2c(c(OC)c1OC)-c1ccc(NNC(N)=S)c(=O)cc1C(NC(C)=O)CC2 [Compound 2, N-[(aS,7S)-10-(2-carbamothioylhydrazinyl)-1,2,3-trimethoxy-9-oxo-5,6,7,9-tetrahydrobenzo[a]heptalen-7-yl]acetamide monohydrate × ⅔ (ethyl acetate)]
GI50 (RPMI-8226; Homo sapiens, RPMI-8226, 48 h): 0.349 µM | CC50 (RPMI-8226; Homo sapiens, RPMI-8226, 48 h, read-out: LC50): > 100 µM | TGI (RPMI-8226): 8.65 µM | TGI (HT29): > 100 µM | GI50 (HT29; Homo sapiens, HT-29, 48 h): 0.336 µM | CC50 (HT29; Homo sapiens, HT-29, 48 h, read-out: LC50): > 100 µM | GI50 (SNB-75; Homo sapiens, SNB-75, 48 h): 0.441 µM | CC50 (SNB-75; Homo sapiens, SNB-75, 48 h, read-out: LC50): > 100 µM | TGI (SNB-75): > 100 µM | GI50 (MDA-MB-435; Homo sapiens, MDA-MB-435, 48 h): 0.233 µM | CC50 (MDA-MB-435; Homo sapiens, MDA-MB-435, 48 h, read-out: LC50): > 100 µM | TGI (MDA-MB-435): 0.838 µM | GI50 (SK-MEL-2; Homo sapiens, SK-MEL-2, 48 h): > 100 µM | CC50 (SK-MEL-2; Homo sapiens, SK-MEL-2, 48 h, read-out: LC50): > 100 µM | TGI (SK-MEL-2): > 100 µM | GI50 (UACC-257; Homo sapiens, UACC-257, 48 h): 0.646 µM | CC50 (UACC-257; Homo sapiens, UACC-257, 48 h, read-out: LC50): > 100 µM | TGI (UACC-257): > 100 µM | GI50 (SN12C; Homo sapiens, 48 h): 0.828 µM | CC50 (SN12C; [2]): > 100 µM | TGI (SN12C): > 100 µM | toxicity for the cell line (PC-3 cells; 25 µM): highly toxic | difference in the cytochrome c-residing cellular compartment (PC-3 cells; 48 h): failed to induce a significant difference | toxicity for the cell line (DU-145 cells; 25 µM): highly toxic | difference in the cytochrome c-residing cellular compartment (DU-145 cells; 48 h, stated as less significantly than in PC-3): failed to induce a significant difference | GI50 (TK-10; Homo sapiens, TK-10, 48 h): 6.77 µM | CC50 (TK-10; Homo sapiens, TK-10, 48 h, read-out: LC50): > 100 µM | TGI (TK-10): > 100 µM | TGI (HCT-15): > 100 µM | GI50 (HCT-15; Homo sapiens, HCT-15, 48 h): 4.03 µM | CC50 (HCT-15; Homo sapiens, HCT-15, 48 h, read-out: LC50): > 100 µM | GI50 (MDA-MB-468; Homo sapiens, MDA-MB-468, 48 h): 0.158 µM | CC50 (MDA-MB-468; Homo sapiens, MDA-MB-468, 48 h, read-out: LC50): > 100 µM | TGI (MDA-MB-468): 0.464 µM | GI50 (NCI-H522; Homo sapiens, NCI-H522, 48 h): 0.55 µM | CC50 (NCI-H522; Homo sapiens, NCI-H522, 48 h, read-out: LC50): > 100 µM | TGI (NCI-H522): > 100 µM | GI50 (OVCAR-8; Homo sapiens, OVCAR-8, 48 h): 0.97 µM | CC50 (OVCAR-8; Homo sapiens, OVCAR-8, 48 h, read-out: LC50): > 100 µM | TGI (OVCAR-8): > 100 µM | GI50 (SF-268; Homo sapiens, SF-268, 48 h): 0.581 µM | CC50 (SF-268; Homo sapiens, SF-268, 48 h, read-out: LC50): > 100 µM | TGI (SF-268): > 100 µM | GI50 (MCF7; Homo sapiens, MCF7, 48 h): 0.415 µM | CC50 (MCF7; Homo sapiens, MCF7, 48 h, read-out: LC50): > 100 µM | TGI (MCF7): > 100 µM | TGI (HOP-62): > 100 µM | GI50 (HOP-62; Homo sapiens, HOP-62, 48 h): 0.7 µM | CC50 (HOP-62; Homo sapiens, HOP-62, 48 h, read-out: LC50): > 100 µM | GI50 (IGROV1; Homo sapiens, IGROV-1, 48 h): 1.18 µM | CC50 (IGROV1; Homo sapiens, IGROV-1, 48 h, read-out: LC50): > 100 µM | TGI (IGROV1): > 100 µM | GI50 (UACC-62; Homo sapiens, UACC-62, 48 h): 0.625 µM | CC50 (UACC-62; Homo sapiens, UACC-62, 48 h, read-out: LC50): > 100 µM | TGI (UACC-62): > 100 µM | GI50 (CCRF-CEM; Homo sapiens, 48 h): 0.422 µM | CC50 (CCRF-CEM; [2]): > 100 µM | TGI (CCRF-CEM): > 100 µM | GI50 (MOLT-4; Homo sapiens, MOLT-4, 48 h): 0.548 µM | CC50 (MOLT-4; Homo sapiens, MOLT-4, 48 h, read-out: LC50): > 100 µM | TGI (MOLT-4): > 100 µM | TGI (786-0): > 100 µM | GI50 (786-0; Homo sapiens, 786-0, 48 h): 0.818 µM | CC50 (786-0; Homo sapiens, 786-0, 48 h, read-out: LC50): > 100 µM | GI50 (LOX IMVI; Homo sapiens, 48 h): 0.71 µM | CC50 (LOX IMVI; [2]): > 100 µM | TGI (LOX IMVI): > 100 µM | GI50 (NCI-H23; Homo sapiens, NCI-H23, 48 h): 0.438 µM | CC50 (NCI-H23; Homo sapiens, NCI-H23, 48 h, read-out: LC50): > 100 µM | TGI (NCI-H23): > 100 µM | GI50 (MALME-3M; Homo sapiens, Malme-3M): 0.394 µM | CC50 (MALME-3M; Homo sapiens, Malme-3M, read-out: LC50): > 100 µM | TGI (MALME-3M): > 100 µM | GI50 (SF-295; Homo sapiens, SF-295, 48 h): 0.549 µM | CC50 (SF-295; Homo sapiens, SF-295, 48 h, read-out: LC50): > 100 µM | TGI (SF-295): > 100 µM
